These molecules were tested against Nicotinic acetylcholine receptor (Rattus leucopus, UniProt Q62594).
Nicotinic acetylcholine receptor, sequence (Q62594 whole entry): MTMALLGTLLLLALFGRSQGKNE

| Compound | Ki |
| --- | --- |
| COc1cc(CC(C)N)cc(OC)c1OC (configuration not stated) | 0.375 µM |
| C=C(C=O)C[C@H]1C[C@H](O)[C@]2(C)O[C@@H]3C[C@@H]4O[C@@H]5C[C@]6(C)O[C@]7(C)CC[C@@H]8O[C@@H]9C[C@]%10(C)O[C@@H]%11C(C)=CC(=O)O[C@H]%11C[C@H]%10O[C@H]9C[C@@H](C)[C@H]8O[C@H]7C[C@H]6O[C@@]5(C)C/C=C\[C@H]4O[C@H]3C[C@H]2O1 | > 10 µM |
| CN1C(=O)CCC1c1cccnc1 (configuration not stated) [CAS_21906] | 5 µM |
| C[N+](C)(C)CCCCCCCCCC[N+](C)(C)C [Decamethonium Iodide] | 3.13 µM |
| C[N+](C)(C)CCCCCC[N+](C)(C)C [Hexamethoniumdibromide] | > 10 µM |
| CN1[C@@H](C[C@@H](O)c2ccccc2)CCC[C@H]1CC(=O)c1ccccc1 [Lobeline] | 0.009 µM |
| COc1cc2c3cc1Oc1cc(ccc1O)C[C@@H]1c4c(cc(OC)c(O)c4Oc4ccc(cc4)C[C@@H]3N(C)CC2)CC[N+]1(C)C [Tubocurarine,d] | > 10 µM |

Source: BindingDB's records for PubMed 3702863 (R. J. Reynolds Tobacco, 1986)
